Laboratory results taken from ChEMBL document CHEMBL4725287, “An in silico mechanistic insight into HDAC8 activation facilitates the discovery of new small-molecule activators” (Bioorg Med Chem, 2020).

How the values were obtained:
[1] = target: T1, Histone deacetylase 8 (Homo sapiens) (UniProt Q9BY41); experiment: Substrate-dependent activation of HDAC8 (unknown origin) assessed as fold activation using FLUOR DE LYS as substrate at 20 uM incubated for 30 mins by fluorescence based assay relative to control; conditions: filed as activator
T1 sequence (whole entry): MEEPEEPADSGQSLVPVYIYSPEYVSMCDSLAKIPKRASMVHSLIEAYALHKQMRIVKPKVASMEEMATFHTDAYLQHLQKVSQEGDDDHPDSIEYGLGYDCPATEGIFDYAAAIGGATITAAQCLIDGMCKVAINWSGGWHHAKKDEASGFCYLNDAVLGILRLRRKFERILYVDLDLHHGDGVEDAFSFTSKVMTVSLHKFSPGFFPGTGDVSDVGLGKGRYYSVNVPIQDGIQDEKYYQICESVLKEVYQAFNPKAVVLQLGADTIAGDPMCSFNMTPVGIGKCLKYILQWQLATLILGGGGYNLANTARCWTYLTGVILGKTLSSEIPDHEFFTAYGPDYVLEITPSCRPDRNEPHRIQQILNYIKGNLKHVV

[2] = target: T2, Histone deacetylase 8 (Homo sapiens, UniProt Q9BY41); experiment: Substrate-dependent activation of HDAC8 (unknown origin) using FLUOR DE LYS as substrate incubated for 30 mins by fluorescence based assay
T2 sequence (Q9BY41 whole entry): T1 sequence (whole entry)

SMILES	fold change (FC) [1]	EC50 [2]
Oc1ccccc1-c1nc2ccccc2s1	1.3	
Sc1nc2ccccc2o1	1.3	
O=C(O)c1ccccc1S [THIOSALICYLIC ACID]	1.3	16.9 µM
O=C(O)c1cccnc1S	1.3	
Nc1ncccc1O	1.3	
Oc1cccc2cccnc12 [OXYQUINOLINE]	1.3	11.1 µM
